Test results taken from US10342430B2, “Device and method for in vivo noninvasive magnetic manipulation of circulating objects in bioflows” (BioVentures, LLC, priority 2007, dated 2019).

Legend:
[1] = In vivo PAFC monitoring of Lymphazurin in blood circulation (ear microvessel) after tail vein injection; design: species or system mouse; conditions: 200 μl of 1% solution into tail vein; 50-μm ear microvessel; 650 nm
Excerpt: In this experiment, a prototype PAFC system was used to detect Lymphazurin circulating in the blood vessels of a mouse ear.
The prototype PAFC system was built on the platform of an Olympus BX51 microscope (Olympus America, Inc.) and a tunable optical parametric oscillator (OPO) pumped by a Nd:YAG laser (Lotis Ltd., Minsk, Belarus). […] Laser energy was directed to the blood vessels using a conventional lens, or an optical fiber. PA waves emitted by the cells were detected by ultrasound transducers (unfocused Panametrics model XMS-310, 10 MHz; focused cylindrical Panametrics model V312-SM, 10 MHz, focused lengths of 6 mm, 12 mm, and 55 mm; and customized resonance transducers), and the ultrasound transducer outputs were conditioned by an amplifier (Panametrics model 5662, bandwidth 50 kHz-5 MHz; Panametrics model 5678, bandwidth 50 kHz-40 MHz; customized amplifiers with adjustable high and low frequency boundaries in the range to 50-200 KHz and 1-20 MHz, respectively; resonance bandwidth of 0.3-1.0 MHz). The amplifier output signals were recorded with a Boxcar data acquisition system (Stanford Research Systems, Inc.) and a Tektronix TDS 3032B oscilloscope, and were analyzed using standard and customized software. […] The signals from the oscilloscope screen were recorded with a digital camera (Sony, Inc.) and video camera (JVC, Inc.). […]

[2] = tested on: B16F10 cultured mouse melanoma cells; assay: Trypan blue exclusion assay after ICG labeling of melanoma cells; format: cell-based; conditions: staining 30 min at 37° C., 5% CO2; data not shown
Excerpt: B16F10 cultured mouse melanoma cells (ATCC, Rockville, Md.) were used in this experiment. The cells were maintained using standard procedures (Ara et al. 1990, Weight et al. 2006, Zharov et al. 2006), including serial passage in phenol-free RPMI 1640 medium (Invitrogen, Carlsbad, Calif.) supplemented with 10% fetal bovine serum (FBS, Invitrogen). For comparison to the detection of unlabelled melanoma cells, the endogenous cell absorption was increased by staining with ICG (Akorn Inc., USA), a strongly absorbent dye in the NIR range, for 30 min at 37° C. and in the presence of 5% CO2.

clearance of Lymphazurin from the blood [1] [min]	SMILES	toxicity after labeling [2]
50	CCN(CC)c1ccc(C(=C2C=CC(=[N+](CC)CC)C=C2)c2cc(S(=O)(=O)[O-])ccc2S(=O)(=O)[O-])cc1.[Na+] [Lymphazurin, Isosulfan Blue]	
	CC1(C)C(/C=C/C=C/C=C/C=C2\N(CCCCS(=O)(=O)O)c3ccc4ccccc4c3C2(C)C)=[N+](CCCCS(=O)(=O)[O-])c2ccc3ccccc3c21 [ICG, Indocyanine Green]	No toxicity was observed
